Here are results for 16 molecules from patent US7598067B2, “PDEs and uses thereof” (priority 2000, dated 2009).

Where “and” joins values, the source holds several entries; their conditions need not be identical. Identical values can stand only once. Like-named read-outs stand apart in the source and are kept apart here.

In one assay the test system is PDE7A. In words: RT-PCR of PDE7A upregulation in CD3/CD28-stimulated CD4+ T cells. In kind it is cell-based, human. To be noted: 1 hour after stimulation; FIG. 2C.
The test system of another assay is PDE8A. Nature of the assay: RT-PCR of PDE8A upregulation in CD3/CD28-stimulated CD4+ T cells. To be noted: after CD3 and CD28 stimulation; FIG. 2C, 2D. It counts as cell-based, human. As to the method:
Peripheral blood mononuclear cells were isolated from one human buffy coat (50 mL) by centrifugation through a layer of Ficoll-Paque Plus (2000 rpm, 30 min). Cells from the interface were removed and further purified by negative selection. CD4^+ T cells were usually isolated using a mixture of monoclonal antibodies (CD8, CD16, CD20, CD25 and HLADr) and goat anti-mouse IgG conjugated to magnetic beads according to the manufacturers protocol (Dynal, Lake Success, N.Y.). In some cases the CD4^+ T cell isolation kit was used in combination with the CD69 microbead kit (to remove activated cells). The labeled cells were removed by passage through a CS column (Miltenyi Biotec, Auburn, Calif.) placed in a magnetic field. The CD4^+ T cells passing through the column (at least 98% pure as determined by FACS analysis) were resuspended in RPMI/10% FBS/pen/strep/glutamine medium. The cells were stimulated as follows. Plates (Corning, Acton, Mass.) were precoated with goat anti-mouse IgG (10 μg/mL) for 2 hours at 37° C. and then washed with PBS. Cells were added to the plate together with CD3 (0.01 μg/mL) and CD28 (0.1 ug/mL) monoclonal antibodies and were harvested at various time points. The presence of PDE8A protein and RNA in activated CD4^+ T cells was detected by Western blotting and RT-PCR (see example 3). […]

Assay [1] addresses T1, TbPDE2A (Trypanosoma brucei, UniProt Q9GTN9). In words: Phosphodiesterase assay, recombinant TbPDE2A in yeast lysates. In kind it is biochemical. To be noted: for effect on TbPDE2A activity in initial screening: 100 μM inhibitor, FIG. 26; for effect on TbPDE2A activity in initial screening / IC50 / IC50 for TbPDE2A (μM): 1 μM cAMP; for IC50 / IC50 for TbPDE2A (μM): full-size TbPDE2A, yeast lysates. As to the method: Yeast cell lysis. Yeast cells grown to mid- to end-log phase in SC-leu medium were collected, resuspended quickly in an original volume of prewarmed YPD medium and incubated for an additional 3 h at 30° C. in order to maximize protein expression. Cells were then harvested, washed once in water and once in HBBB buffer (Hank's balanced salt solution, containing 50 mM HEPES, pH 7.5). The washed cell pellet was suspended in an equal volume of HBB containing a protease inhibitor cocktail (Complete™, Roche Molecular Biochemicals). […] The cell lysate was clarified by centrifugation for 15 min at 15,000×g.
Phosphodiesterase Assay. […] […] Incubation was at 30° C. for 20 min. […] The precipitates were filtered through GF-C glass fiber fitters and filters were washed 3 times with ice-cold 1 mM NaOH/100 mM NaCl and were then dried and counted in liquid scintillation fluid (4 g/I omnifluor in toluene). All assays were carried out in triplicates and with three independent enzyme preparations. Controls for the efficiency of precipitation of cAMP and of AMP were always included. When assaying yeast cell extracts, control lysates from the PDE deletion strains transfected with empty vector was used as a background control. […] Inhibitors were dissolved in DMSO or ethanol, and the final concentration of the solvent never exceeded 1% in the assays reaction. Incubation times and enzyme concentrations were always adjusted so that less than 30% of the input substrate was hydrolyzed (2-5 μg total protein/100 μl assay). IC50 values were calculated by curve fitting on a four parameter dose-response model with variable slope, using the Prism software package of Graph Pad Inc., San Diego, Calif.

The test system of assay [2] is total PDE activity of trypanosomal cell extracts. Nature of the assay: Total PDE activity in trypanosomal cell extracts. It counts as biochemical, Trypanosoma brucei. The source says:
Chemical validation of the TbPDE2 family as a potential drug target. One of the novel PDEs of the invention, TbPDE2A, was expressed as a recombinant protein and was characterized in detail (see above). […].

For a further assay, the target named is TbPDE2B (Trypanosoma brucei, UniProt Q9GQU6). In words: Phosphodiesterase assay, recombinant TbPDE2B expressed in HEK 293 cells. It counts as biochemical. To be noted: for inhibition of recombinant TbPDE2B, in words: 1 μM [3H] cAMP, cGMP up to 200 μM. As to the method:
Expression of T. brucei PDE. The ORF sequence for T. brucei PDE was subcloned into the pcDNA 3.1-TOPO vector (Invitrogen) according to the manual (Eukaryotic TOPO TA Cloning, version C) and plasmid DNA purified as described above. Human embryonic kidney 293 (HEK 293) cells were transfected with 12 μg of DNA in 60 μl of GenePORTER Transfection Reagent (Gene Therapy Systems, San Diego, Calif.) in 100-mm dishes and kept at 37° C. in 5% CO2 for 24 h. After this period fresh medium was added, and incubated under the same conditions for an additional 24 h. The same amount of pcDNA vector containing the sequence for the Green Fluorescent Protein (GFP) was transfected under identical conditions as a positive control for expression and as a negative control for PDE activity. Two plates were harvested at a time and homogenized with 1 ml of homogenization buffer containing 40 mM Tris-HCl, pH 7.5; 15 mM benzamidine; 15 mM 2-mercaptoethanol; 1 μg/ml pepstatin A; 1 μg/ml leupeptin and 5 mM EDTA. The cell suspension was immediately subjected to sonication (3×5 s) on ice. One volume of glycerol and 1 mg/ml of bovine serum albumin were added immediately to the homogenate.
Phosphodiesterase assay. […]

For assay [3], the system named is PDE8A and PDE7A from hut78 cells. Nature of the assay: PDE activity of monoQ HPLC fractions of hut78 cells, low Km peak. In kind it is biochemical, human. To be noted: 0.01 μM cAMP; 10 μM rolipram or 100 μM IBMX. As to the method:
Since pure CD4^+ T cells can only be obtained in limited quantities, a human CD4^+ T cell line, hut78, (ATCC, Manassas, Va.), was used to study the activity of PDE8A. Hut78 cells (2×10^8) were resuspended in 20 mM Tris pH 7.5 buffer containing protease inhibitors (Boehringer Mannheim, Indianapolis, Ind.) and sonicated. The supernatant was removed after centrifugation at 15000×g for 10 minutes and applied to a Mono Q column attached to a Rainin Dynamax HPLC system (Ameryville, Calif.). A NaCl gradient (0-0.8M) was passed through the column and 250 uL fractions were collected. The fractions were assayed for activity using either 1 μM or 0.01 μM cAMP as substrate and the indicated concentration of inhibitor (FIG. 5). Western blot analysis was also performed (10 μL/well) using PDE7A or 8A antibodies.

The subject of a further assay is PDE 4. To be noted: read-out: PDE Selectivity (IC50); cited from earlier work.
Assay [4] addresses T1, TbPDE2A. To be noted: Table 2, from reference; cited from earlier work.
In assay [5] the test system is endogenous PDE activity from the HEK 293 cells. In words: Endogenous PDE activity from HEK 293 cells. It counts as biochemical, human. To be noted: lowest concentration used (10 μM). From the text:
Phosphodiesterase assay. […] […]

The next assay relates to PDEs (Non-selective). To be noted: read-out: PDE Selectivity (IC50); cited from earlier work.
The next assay has as its system PDE 6. To be noted: read-out: PDE Selectivity (IC50); cited from earlier work.

TbPDE2B, sequence (Q9GQU6 entry or part of it): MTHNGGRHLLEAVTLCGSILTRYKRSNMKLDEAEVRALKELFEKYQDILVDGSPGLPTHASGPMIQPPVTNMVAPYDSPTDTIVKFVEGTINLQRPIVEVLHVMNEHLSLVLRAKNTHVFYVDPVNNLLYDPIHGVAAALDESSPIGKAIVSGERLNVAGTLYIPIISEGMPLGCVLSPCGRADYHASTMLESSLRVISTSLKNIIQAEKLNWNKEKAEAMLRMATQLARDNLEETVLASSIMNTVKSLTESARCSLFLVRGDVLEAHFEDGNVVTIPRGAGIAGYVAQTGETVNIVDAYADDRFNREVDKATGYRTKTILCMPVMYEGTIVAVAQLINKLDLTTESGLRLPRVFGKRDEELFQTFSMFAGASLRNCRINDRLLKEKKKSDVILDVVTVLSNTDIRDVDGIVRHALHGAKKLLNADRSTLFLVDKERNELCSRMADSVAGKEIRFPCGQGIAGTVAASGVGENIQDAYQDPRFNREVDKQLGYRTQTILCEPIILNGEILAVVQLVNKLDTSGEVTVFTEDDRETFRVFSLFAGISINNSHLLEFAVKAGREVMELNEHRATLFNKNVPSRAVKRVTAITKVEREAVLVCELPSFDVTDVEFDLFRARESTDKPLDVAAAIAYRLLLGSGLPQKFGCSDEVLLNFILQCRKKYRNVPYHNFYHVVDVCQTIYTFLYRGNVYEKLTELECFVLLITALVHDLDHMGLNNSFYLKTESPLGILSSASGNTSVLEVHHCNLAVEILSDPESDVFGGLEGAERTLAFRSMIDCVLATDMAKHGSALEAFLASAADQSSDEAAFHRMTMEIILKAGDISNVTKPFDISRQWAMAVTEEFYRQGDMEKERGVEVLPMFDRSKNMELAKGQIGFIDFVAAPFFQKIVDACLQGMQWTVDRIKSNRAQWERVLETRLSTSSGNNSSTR
T1 sequence (Q9GTN9 entry or part of it): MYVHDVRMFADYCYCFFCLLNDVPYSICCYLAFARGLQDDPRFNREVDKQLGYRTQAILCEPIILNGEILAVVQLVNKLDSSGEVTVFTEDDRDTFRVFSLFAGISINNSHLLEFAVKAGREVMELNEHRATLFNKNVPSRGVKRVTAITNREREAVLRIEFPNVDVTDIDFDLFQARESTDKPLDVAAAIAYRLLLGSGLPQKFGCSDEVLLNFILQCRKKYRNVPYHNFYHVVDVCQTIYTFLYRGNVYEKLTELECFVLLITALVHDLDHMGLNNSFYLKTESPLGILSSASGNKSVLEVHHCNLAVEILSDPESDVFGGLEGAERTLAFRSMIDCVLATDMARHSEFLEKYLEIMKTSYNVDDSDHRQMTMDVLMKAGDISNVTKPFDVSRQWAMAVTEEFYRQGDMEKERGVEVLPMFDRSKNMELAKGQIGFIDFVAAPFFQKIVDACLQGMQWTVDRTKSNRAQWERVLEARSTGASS

`CC(C)(C)n1nc(-c2ccc(Cl)cc2)c2c(N)ncnc21` [PP2]: the PDE7A upregulation result in the assay on PDE7A was “reduction of PDE7A upregulation”. Further, the PDE8A upregulation entry with PDE8A is “greatly reduced”.
`Cc1[nH]c(=O)c(C#N)cc1-c1ccncc1` [milrinone]: on TbPDE2A [1], the “effect on TbPDE2A activity in initial screening” value (shortened to “effect on TbPDE2A activity”) is “only very little effect”.
A word on the IC50: it is the midpoint of a concentration-inhibition curve. On to `CCCc1nn(C)c2c(=O)[nH]c(-c3cc(S(=O)(=O)N4CCN(C)CC4)ccc3OCC)nc12` [Sildenafil, sildenafil], for which the “total PDE activity” value in assay [2] is listed as “marked, if not complete, reduction”. On TbPDE2B, the IC50 is over 100 µM and the “inhibition of recombinant TbPDE2B, in words” value (from here on “inhibition”) is reported as “No IC50 could be obtained”. Besides, at TbPDE2A [1], the IC50 stood at 9.4 µM and the “IC50 for TbPDE2A (μM)” value is on record as “low micromolar range”.
With `Cn1c(=O)c2[nH]cnc2n(C)c1=O` [Theophylline, theophylline], on TbPDE2A [1], the “effectiveness on TbPDE2A, in words” value is “not effective” and the IC50 is over 100 µM.
As for `COc1ccc(C2CNC(=O)C2)cc1OC1CCCC1` (stereo not drawn) [Rolipram, rolipram], in [3], the “sensitivity of the PDE activity peak” value is on record as “resistant”. In addition, the IC50 with PDE 4 is […]; on TbPDE2B it was over 300 µM; on TbPDE2A [1] it was over 100 µM; on TbPDE2A [4], over 100 µM. Further, on TbPDE2B, the “inhibition” value is “No inhibition”. Besides, the “effect on TbPDE2A activity” value at TbPDE2A [1] is recorded as “no appreciable activity”. For the same molecule, the “endogenous PDE activity from the HEK 293 cells” value in assay [5] is given as “completely abolished”.
With `COCc1nc2c([nH]1)c(=O)n(C)c(=O)n2CC(C)C` [8-methoxymethyl-IBMX], the “effect on TbPDE2A activity” value on TbPDE2A [1] is “only very little effect”.
For `COc1cc2c(cc1OC)-c1c/c(=N\c3c(C)cc(C)cc3C)n(C)c(=O)n1CC2` [Trequinsin], the “total PDE activity” value in [2] is “marked, if not complete, reduction”. Besides, at TbPDE2A [1], the IC50 was 5.4 µM and the “IC50 for TbPDE2A (μM)” value is “low micromolar range”.
For the molecule `CC(=O)CCCCn1c(=O)c2c(ncn2C)n(C)c1=O` [Pentoxifylline, pentoxifylline], the values for the IC50 with PDEs (Non-selective) and at TbPDE2B were 45 to 150 µM and over 800 µM, respectively. The “inhibition” value on TbPDE2B is “extremely low sensitivity”.
As to `CCOc1ccc(Cc2nccc3cc(OCC)c(OCC)cc23)cc1OCC` [Ethaverine], in assay [2], the “total PDE activity” value was “marked, if not complete, reduction”. In addition, at TbPDE2A [1], the “effect on TbPDE2A activity” value is recorded as “significantly more effective as an inhibitor of TbPDE2A than its parent compound papaverine”; the IC50 is 14 µM and 14.2 µM; the “IC50 for TbPDE2A (μM)” value is “low micromolar range”.
On to `CCCOc1ccccc1-c1nc2nn[nH]c2c(=O)[nH]1` [Zaprinast, zaprinast], for which the IC50 on TbPDE2B is over 50 µM; in the assay on PDE 6 it was 150 nM; at TbPDE2A [1], 42.4 µM; at TbPDE2A [4], 42.5 µM. The “inhibition” value at TbPDE2B was “No IC50 could be obtained”. Moreover, the “effect on TbPDE2A activity” value on TbPDE2A [1] is “only very little effect”.
Consider `CCCCCCC(C(C)O)n1cnc2c(N)ncnc21` (stereo not drawn) [EHNA, erythro-9-[3-(2-hydroxynonyl)]-adenine], for which, at TbPDE2B, the IC50 was over 180 µM and the “inhibition” value was “No IC50 could be obtained”.
Regarding `CN(C(=O)CCCOc1ccc2[nH]c(=O)ccc2c1)C1CCCCC1` [Cilostamide, cilostamide], on TbPDE2A [1], the “effect on TbPDE2A activity” value was “only very little effect” and the IC50 was over 100 µM.
`CCOC(=O)C1=C[C@]2(CC)CCCN3CCc4c(n1c1ccccc41)[C@@H]32` [Vinpocetine, vinpocetine]: at TbPDE2A [1], the “effect on TbPDE2A activity” value is “only very little effect” and the IC50 is over 100 µM.
With `CCOC(=O)c1cnc2c(cnn2CC)c1NN=C(C)C` [Etazolate, etazolate], the IC50 worked out at 127 µM at TbPDE2B and 30.3 µM on TbPDE2A [1].
With Ro 20-1724, the IC50 in the assay with PDE 4 was 2000 nM; at TbPDE2B (Substrate concentration 1 μM [3H]-cAMP, read-out: TbPDE2B IC50 (μM) (n = 3)), over 300 µM. In addition, the “inhibition” value at TbPDE2B is given as “No inhibition”. Also, the “endogenous PDE activity from the HEK 293 cells” value in [5] is given as “completely abolished”.
`COc1ccc(Cc2nccc3cc(OC)c(OC)cc23)cc1OC` [Papaverine, papaverine]: the IC50 in the assay on PDEs (Non-selective) is 5 to 25 µM. At TbPDE2B, the IC50 is 304 ± 19 µM and the “inhibition” value is recorded as “extremely low sensitivity”. On TbPDE2A [1], the “effectiveness on TbPDE2A, in words” value is on record as “only marginal activity”.
